Source: US20190381015A1, “PHARMACEUTICAL USE OF BERBERINE” (priority 2016, published 2019)
“Also recorded” adds a separate entry of the source.

Experiments:
[1] = test system: pulmonary arterial smooth muscle cells; test: Noradrenaline-stimulated pulmonary arterial smooth muscle cells: Grk2 and LKB1; type: cell-based; settings: pulmonary arterial smooth muscle cells of normal animals, berberine added for 30 minutes (CTL group), FIG. 1
Procedure: FIG. 1 is a schematic diagram of berberine inhibiting noradrenaline. The pulmonary arterial smooth muscle cells are stimulated with noradrenaline (NE) for 2 hours and then randomly divided into a berberine group (Ctl group, berberine for 4 hours) and a control group. In the control group, cells are collected at various time points (30 minutes-4 hours) after the grouping, and the protein phosphorylation activities of liver kinase B1 (LKB1) and G-protein coupled receptor kinase 2 (Grk2) are measured. GAPDH is an internal reference protein.

[2] = test system: pulmonary hypertension induced by dehydrogenated monocrotaline; test: Dehydrogenated monocrotaline-induced pulmonary hypertension in beagles; type: in vivo
Source text: FIG. 2 is a mirror view for a contrast experiment of berberine inhibiting pulmonary artery remodeling. Animals with pulmonary hypertension are randomly divided into a normal control group, a berberine group, and a blank group without treatment. Histochemical staining (HE) and vascular endothelial vWF staining, smooth muscle cell staining (SMA).
20 beagles were selected, were subjected to pulmonary hemodynamics measurement, and then were randomly divided into a berberine group ([…]) and a control group (intragastric gavage of a berberine coating, without berberine, 14 days in total). […] Results: the mean pulmonary arterial pressure of only one animal in the berberine group reaches 28 mmHg, and the mean pulmonary arterial pressures of the other 9 animals are all <25 mmHg (19±3.0 mmHg). In contrast, the mean pulmonary arterial pressures of 8 animals in the control group are all >26 mmHg (28.4±2.1 mmHg), one animal for 24.6 mmHg, and the other one for 24.8 mmHg.

[3] = test system: idiopathic pulmonary hypertension; test: Clinical experiment in patients with idiopathic pulmonary hypertension; type: in vivo, human; settings: berberine 0.3 g/d for 3 months added to original targeted drugs, 3 per group
Source text: FIG. 4 is a histogram of contrast experiment data showing that berberine reduces the mean pulmonary arterial pressure. […] Every three data columns in the figure are a group, and are a normal group, a blank group, and a berberine group from left to right in sequence.
Six patients with idiopathic pulmonary hypertension were divided into two groups (3 in each group): a control group (administered with targeted drugs according to the original doses) and a berberine group (based on the original targeted drugs, additionally administered with berberine at 0.3 g/d for a total of 3 months).

[4] = test system: acute myocardial infarction; test: Cardiac failure in patients with acute myocardial infarction / ischemic cardiomyopathy; type: in vivo, human
Source text: 40 patients with acute myocardial infarction were randomly divided into a control group and a berberine group (0.3 g, three times a day, three months later). The mean left ventricular ejection fraction of the control group is 41%, while the mean left ventricular ejection fraction of the berberine group is increased to 53% (p=0.037).

[5] = test system: myocardial infarction model; test: Myocardial infarction animal model; type: in vivo
Source text: FIG. 6 is an experimental result diagram showing berberine for prevention and treatment of ischemic cardiomyopathy.
30 animals in the myocardial infarction model were randomly divided into a control group and a berberine group by intragastric gavage.

[6] = cited from earlier work
in-stent restenosis = test: In-stent restenosis in patients with drug-eluting stent implantation; type: in vivo, human
Procedure: FIG. 5 is an experimental control diagram of berberine in the prevention and treatment of in-stent restenosis.
100 patients with drug-eluting stent implantation were randomly divided into two groups: a control group (without additional berberine) and a berberine group (additionally administered with berberine at 0.3 g/d since the 3th month after surgery for a total of 6 months), and coronary angiography was performed again at the 12th month after surgery.

[7] = beagles, intragastric gavage 0.1 g/d for 14 days before dehydrogenated monocrotaline 60 mg/kg, retested after 8 weeks, 9 of 10 animals

COc1ccc2cc3[n+](cc2c1OC)CCc1cc2c(cc1-3)OCO2 [berberine]
Grk2 and LKB1 after noradrenaline stimulation [1]: significant decrease | proliferation degree of pulmonary arterial smooth muscle / pathological remodeling of pulmonary vasculature ([2]; 8 control animals with mean pulmonary arterial pressure >25 mmHg, then berberine intragastric gavage 0.1 g/d for 42 days, at 14 weeks, FIG. 2): significantly reduced | mean pulmonary arterial pressure, one animal of the berberine group ([2]; beagles, intragastric gavage 0.1 g/d for 14 days before dehydrogenated monocrotaline 60 mg/kg, retested after 8 weeks, 1 of 10 animals): 28 mmHg | mean pulmonary arterial pressures, other 9 animals of the berberine group (bound) [2, 7]: < 25 mmHg | mean pulmonary arterial pressures, other 9 animals of the berberine group (mean ± spread) [2, 7]: 19±3.0 mmHg | right ventricular function (right ventricular systolic displacement amplitude, TAPSE) ([3]; FIG. 3): significantly improved | mean pulmonary arterial pressure ([3]; FIG. 4): significantly reduced | cardiac cavity, single patient ([4]; one patient with acute anterior myocardial infarction, berberine treatment for 3 months, FIG. 7): reduced | ejection fraction, single patient ([4]; one patient, day 22 after myocardial infarction, then berberine for 3 months, ultrasonic cardiography, FIG. 7): significantly increased; also recorded: significant increased | myocardial contractility / systolic function, single patient ([4]; one patient, berberine for 3 months, FIG. 7): improved; also recorded: significantly enhanced | mean left ventricular ejection fraction ([4]; patients with acute myocardial infarction, 0.3 g three times a day, three months later, control 41%, p=0.037): 53% | arrangement of cardiomyocytes ([5]; berberine treatment group): arranged intactly | apoptotic bodies (electron microscopy) ([5]; intragastric gavage, 0.3 g three times a day, three months later, FIG. 6 right A-C): decrease | apoptosis of myocardial cells ([5]; intragastric gavage, 0.3 g three times a day, three months later, fluorescent staining, FIG. 6 left): significantly reduces | solubility in benzene, diethyl ether, and chloroform ([6]; benzene, diethyl ether, chloroform): insoluble | solubility in water ([6]; water): soluble | stenosis degree in patients with restenosis treated afterwards (in-stent restenosis; 7 control patients with restenosis, oral berberine 0.3 g/d for 6 months, followed up 9 months, result in 6 patients, FIG. 5): significantly reduced | proportion of in-stent restenosis (in-stent restenosis; berberine 0.3 g/d from 3rd month after surgery for 6 months, coronary angiography at 12th month, control 14%, p=0.035): 4% | number of cases showing restenosis (in-stent restenosis; berberine 0.3 g/d from 3rd month after surgery for 6 months, coronary angiography at 12th month, control N=7): 2 cases | in-stent restenosis on coronary angiography, single patient (in-stent restenosis; patient with severe in-stent restenosis, continuous berberine treatment for 6 months, FIG. 5): substantially disappears | degree of stenosis (in-stent restenosis; restenosis cases of berberine group, 12th month after surgery, control 76.3±9%, p=0.029): 58±4%
